From patent US7138361B2, “Herbicidal heterocycles” (E. I. du Pont de Nemours and Company, priority 2000, dated 2006)

Key:
Format in all cases: in vivo
rice (Oryza saliva) = assay: Test C flooded paddy test; conditions: for Rice plant response rating: Flooded Paddy, scale 0 to 100, 0 no effect, 100 complete control; for Plant response rating, Rice: flooded paddy test, scale 0 to 100 (0 no effect, 100 complete control)
Summary of the method: (§1)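 Greenhouse-maintained for 12 to 14 days after treatment, the paddy plants (2-leaf stage at application) were scored visually against controls. A score of 0 denotes no effect and a score of 100 denotes complete control.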

[1] = test system: duck salad (Heteranthera limosa); assay: Test C flooded paddy test; conditions: for Ducksalad plant response rating: Flooded Paddy, scale 0 to 100, 0 no effect, 100 complete control; for Plant response rating, Ducksalad: flooded paddy test, scale 0 to 100 (0 no effect, 100 complete control)
Summary of the method: as §1

[2] = test system: barnyardgrass (Echinochloa crus-galli); assay: Test C flooded paddy test; conditions: for Barnyardgrass plant response rating: Flooded Paddy, scale 0 to 100, 0 no effect, 100 complete control; for Plant response rating, Barnyardgrass: flooded paddy test, scale 0 to 100 (0 no effect, 100 complete control)
Summary of the method: as §1

[3] = test system: bermudagrass (Cynodon dactylon); assay: Test C postemergence
Source text: (§2) Seeds of plant species selected from bermudagrass (Cynodon dactylon), Surinam grass (Brachiaria decumbens), cocklebur (Xanthium strumarium), corn (Zea mays), crabgrass (Digitaria sanguinalis), woolly cupgrass (Eriochloa villosa), giant foxtail (Setaria faberii), goosegrass (Eleusine indica), johnsongrass (Sorghum halepense), kochia (Kochia scoparia), lambsquarters (Chenopodium album), morningglory (Ipomoea hederacea), yellow nutsedge (Cyperus esculentus), pigweed (Amaranthus retroflexus), common ragweed (Ambrosia elatior), soybean (Glycine max) and velvetleaf (Abutilon theophrasti) were planted and treated preemergence with test chemicals formulated in a non-phytotoxic solvent mixture which included a surfactant.
(§3) At the same time, plants selected from these crop and weed species and also winter barley (Hordeum vulgare), blackgrass (Alopecurus myosuroides), canary grass (Phalaris minor), chickweed (Stellaria media), downy brome (Bromus tectorum), green foxtail (Setaria viridis), Italian ryegrass (Lolium multiflorum), wheat (Triticum aestivum), wild oat (Avena fatua) and windgrass (Apera spica-venti) were treated with postemergence applications of some of the test chemicals formulated in the same manner. Plants ranged in height from 2 to 18 cm (1- to 4-leaf stage) for postemergence treatments. Plant species in the flooded paddy test consisted of rice (Oryza saliva), smallflower flatsedge (Cyperus difformis), duck salad (Heteranthera limosa) and barnyardgrass (Echinochloa crus-galli) grown to the 2-leaf stage for testing. Treated plants and controls were maintained in a greenhouse for 12 to 14 days, after which time all species were compared to controls and visually evaluated. Plant response ratings, summarized in Table C, are based on a scale of 0 to 100 where 0 is no effect and 100 is complete control. A dash (-) response means no test result.

[4] = test system: Surinam grass (Brachiaria decumbens); assay: Test C postemergence
Source text: as §2, §3

corn (Zea mays) = assay: Test C postemergence
Source text: as §2, §3

[5] = test system: cocklebur (Xanthium strumarium); assay: Test C postemergence
Source text: as §2, §3

[6] = test system: pigweed (Amaranthus retroflexus); assay: Test C postemergence
Source text: as §2, §3

[7] = test system: crabgrass (Digitaria sanguinalis); assay: Test C postemergence
Source text: as §2, §3

[8] = test system: woolly cupgrass (Eriochloa villosa); assay: Test C postemergence
Source text: as §2, §3

[9] = test system: giant foxtail (Setaria faberii); assay: Test C postemergence
Source text: as §2, §3

[10] = test system: common ragweed (Ambrosia elatior); assay: Test C postemergence
Source text: as §2, §3

[11] = test system: johnsongrass (Sorghum halepense); assay: Test C postemergence
Source text: as §2, §3

[12] = test system: morningglory (Ipomoea hederacea); assay: Test C postemergence
Source text: as §2, §3

kochia (Kochia scoparia) = assay: Test C postemergence
Source text: as §2, §3

[13] = test system: yellow nutsedge (Cyperus esculentus); assay: Test C postemergence
Source text: as §2, §3

[14] = test system: chickweed (Stellaria media); assay: Test C postemergence
Source text: as §2, §3

[15] = Rate 125 g/ha, scale 0 to 100, 0 no effect, 100 complete control
[16] = Rate 250 g/ha, scale 0 to 100 (0 no effect, 100 complete control)
[17] = Rate 500 g/ha, scale 0 to 100 (0 no effect, 100 complete control)

## CCC(CC)c1ccn(C2OCN(c3cccc(OC(F)(F)F)c3)C2=O)n1 (centres unmarked) [Compound 68]
Rice (Oryza saliva); Rate 250 g/ha
  Rice plant response rating: 30
Rice (Oryza saliva); Rate 500 g/ha
  Rice plant response rating: 100
Rice (Oryza saliva); Rate 62 g/ha
  Plant response rating, Rice: 20
Rice (Oryza saliva); Rate 125 g/ha
  Plant response rating, Rice: 30
[1]; Rate 250 g/ha
  Ducksalad plant response rating: 100
[1]; Rate 500 g/ha
  Ducksalad plant response rating: 100
[1]; Rate 62 g/ha
  Plant response rating, Ducksalad: 100
[1]; Rate 125 g/ha
  Plant response rating, Ducksalad: 100
[2]; Rate 250 g/ha
  Barnyardgrass plant response rating: 100
[2]; Rate 500 g/ha
  Barnyardgrass plant response rating: 100
[2]; Rate 62 g/ha
  Plant response rating, Barnyardgrass: 90
[2]; Rate 125 g/ha
  Plant response rating, Barnyardgrass: 100
[3]; Rate 62 g/ha, scale 0 to 100
  Plant response rating, Bermudagrass: 0
[3]; [15]
  Plant response rating, Bermudagrass: 0
[3]; [16]
  Plant response rating, Bermudagrass: 20
[3]; [17]
  Plant response rating, Bermudagrass: 40
[4]; Rate 62 g/ha, scale 0 to 100
  Plant response rating, Surinam grass: 0
[4]; [15]
  Plant response rating, Surinam grass: 0
[4]; [16]
  Plant response rating, Surinam grass: 0
[4]; [17]
  Plant response rating, Surinam grass: 0
Corn (Zea mays); Rate 62 g/ha, scale 0 to 100
  Plant response rating, Corn: 0
Corn (Zea mays); [15]
  Plant response rating, Corn: 0
Corn (Zea mays); [16]
  Plant response rating, Corn: 0
Corn (Zea mays); [17]
  Plant response rating, Corn: 0
[5]; Rate 62 g/ha, scale 0 to 100
  Plant response rating, Cocklebur: 0
[5]; [15]
  Plant response rating, Cocklebur: 0
[5]; [16]
  Plant response rating, Cocklebur: 0
[5]; [17]
  Plant response rating, Cocklebur: 50
[6]; Rate 62 g/ha, scale 0 to 100
  Plant response rating, Pigweed: 60
[6]; [15]
  Plant response rating, Pigweed: 70
[6]; [16]
  Plant response rating, Pigweed: 70
[6]; [17]
  Plant response rating, Pigweed: 100
[7]; Rate 62 g/ha, scale 0 to 100
  Plant response rating, Crabgrass: 0
[7]; [15]
  Plant response rating, Crabgrass: 0
[7]; [16]
  Plant response rating, Crabgrass: 0
[7]; [17]
  Plant response rating, Crabgrass: 60
[8]; Rate 62 g/ha, scale 0 to 100
  Plant response rating, Cupgrass, Woolly: 0
[8]; [15]
  Plant response rating, Cupgrass, Woolly: 0
[8]; [16]
  Plant response rating, Cupgrass, Woolly: 0
[8]; [17]
  Plant response rating, Cupgrass, Woolly: 30
[9]; Rate 62 g/ha, scale 0 to 100
  Plant response rating, Foxtail, Giant: 0
[9]; [15]
  Plant response rating, Foxtail, Giant: 0
[9]; [16]
  Plant response rating, Foxtail, Giant: 0
[9]; [17]
  Plant response rating, Foxtail, Giant: 0
[10]; Rate 62 g/ha, scale 0 to 100
  Plant response rating, Ragweed, Common: 0
[10]; [15]
  Plant response rating, Ragweed, Common: 0
[10]; [16]
  Plant response rating, Ragweed, Common: 0
[10]; [17]
  Plant response rating, Ragweed, Common: 30
[11]; Rate 62 g/ha, scale 0 to 100
  Plant response rating, Johnsongrass: 0
[11]; [15]
  Plant response rating, Johnsongrass: 0
[11]; [16]
  Plant response rating, Johnsongrass: 0
[11]; [17]
  Plant response rating, Johnsongrass: 20
[12]; Rate 62 g/ha, scale 0 to 100
  Plant response rating, Morningglory: 50
[12]; [15]
  Plant response rating, Morningglory: 60
[12]; [16]
  Plant response rating, Morningglory: 60
[12]; [17]
  Plant response rating, Morningglory: 70
Kochia (Kochia scoparia); Rate 62 g/ha, scale 0 to 100
  Plant response rating, Kochia: 50
Kochia (Kochia scoparia); [15]
  Plant response rating, Kochia: 70
Kochia (Kochia scoparia); [16]
  Plant response rating, Kochia: 70
Kochia (Kochia scoparia); [17]
  Plant response rating, Kochia: 70
[13]; Rate 62 g/ha, scale 0 to 100
  Plant response rating, Nutsedge: 0
[13]; [15]
  Plant response rating, Nutsedge: 0
[13]; [16]
  Plant response rating, Nutsedge: 0
[13]; [17]
  Plant response rating, Nutsedge: 0
[14]; Rate 62 g/ha, scale 0 to 100
  Plant response rating, Chickweed: 30
[14]; [15]
  Plant response rating, Chickweed: 40
[14]; [16]
  Plant response rating, Chickweed: 70
[14]; [17]
  Plant response rating, Chickweed: 80

## CCC(C)c1ccn(C2CCN(c3ccc(C)c(OC)c3)C2=O)n1 (centres unmarked) [Compound 80]
Rice (Oryza saliva); Rate 250 g/ha
  Rice plant response rating: 70
Rice (Oryza saliva); Rate 500 g/ha
  Rice plant response rating: 90
Rice (Oryza saliva); Rate 125 g/ha
  Plant response rating, Rice: 50
[1]; Rate 250 g/ha
  Ducksalad plant response rating: 100
[1]; Rate 500 g/ha
  Ducksalad plant response rating: 100
[1]; Rate 62 g/ha
  Plant response rating, Ducksalad: 80
[1]; Rate 125 g/ha
  Plant response rating, Ducksalad: 100
[2]; Rate 250 g/ha
  Barnyardgrass plant response rating: 90
[2]; Rate 500 g/ha
  Barnyardgrass plant response rating: 90
[2]; Rate 62 g/ha
  Plant response rating, Barnyardgrass: 0
[2]; Rate 125 g/ha
  Plant response rating, Barnyardgrass: 60
[3]; Rate 62 g/ha, scale 0 to 100
  Plant response rating, Bermudagrass: 0
[3]; [15]
  Plant response rating, Bermudagrass: 0
[3]; [16]
  Plant response rating, Bermudagrass: 0
[3]; [17]
  Plant response rating, Bermudagrass: 20
[4]; Rate 62 g/ha, scale 0 to 100
  Plant response rating, Surinam grass: 0
[4]; [15]
  Plant response rating, Surinam grass: 0
[4]; [16]
  Plant response rating, Surinam grass: 0
[4]; [17]
  Plant response rating, Surinam grass: 0
Corn (Zea mays); Rate 62 g/ha, scale 0 to 100
  Plant response rating, Corn: 0
Corn (Zea mays); [15]
  Plant response rating, Corn: 0
Corn (Zea mays); [16]
  Plant response rating, Corn: 0
Corn (Zea mays); [17]
  Plant response rating, Corn: 0
[5]; Rate 62 g/ha, scale 0 to 100
  Plant response rating, Cocklebur: 20
[5]; [15]
  Plant response rating, Cocklebur: 30
[5]; [16]
  Plant response rating, Cocklebur: 30
[5]; [17]
  Plant response rating, Cocklebur: 40
[6]; Rate 62 g/ha, scale 0 to 100
  Plant response rating, Pigweed: 20
[6]; [15]
  Plant response rating, Pigweed: 40
[6]; [17]
  Plant response rating, Pigweed: 70
[7]; Rate 62 g/ha, scale 0 to 100
  Plant response rating, Crabgrass: 0
[7]; [15]
  Plant response rating, Crabgrass: 0
[7]; [16]
  Plant response rating, Crabgrass: 0
[7]; [17]
  Plant response rating, Crabgrass: 30
[8]; Rate 62 g/ha, scale 0 to 100
  Plant response rating, Cupgrass, Woolly: 0
[8]; [15]
  Plant response rating, Cupgrass, Woolly: 0
[8]; [16]
  Plant response rating, Cupgrass, Woolly: 0
[8]; [17]
  Plant response rating, Cupgrass, Woolly: 0
[9]; Rate 62 g/ha, scale 0 to 100
  Plant response rating, Foxtail, Giant: 0
[9]; [15]
  Plant response rating, Foxtail, Giant: 0
[9]; [16]
  Plant response rating, Foxtail, Giant: 0
[9]; [17]
  Plant response rating, Foxtail, Giant: 20
[10]; Rate 62 g/ha, scale 0 to 100
  Plant response rating, Ragweed, Common: 0
[10]; [15]
  Plant response rating, Ragweed, Common: 0
[10]; [16]
  Plant response rating, Ragweed, Common: 50
[10]; [17]
  Plant response rating, Ragweed, Common: 80
[11]; Rate 62 g/ha, scale 0 to 100
  Plant response rating, Johnsongrass: 0
[11]; [15]
  Plant response rating, Johnsongrass: 0
[11]; [16]
  Plant response rating, Johnsongrass: 0
[11]; [17]
  Plant response rating, Johnsongrass: 0
[12]; Rate 62 g/ha, scale 0 to 100
  Plant response rating, Morningglory: 50
[12]; [15]
  Plant response rating, Morningglory: 60
[12]; [16]
  Plant response rating, Morningglory: 60
[12]; [17]
  Plant response rating, Morningglory: 100
Kochia (Kochia scoparia); Rate 62 g/ha, scale 0 to 100
  Plant response rating, Kochia: 0
Kochia (Kochia scoparia); [15]
  Plant response rating, Kochia: 0
Kochia (Kochia scoparia); [16]
  Plant response rating, Kochia: 30
Kochia (Kochia scoparia); [17]
  Plant response rating, Kochia: 50
[13]; Rate 62 g/ha, scale 0 to 100
  Plant response rating, Nutsedge: 0
[13]; [15]
  Plant response rating, Nutsedge: 20
[13]; [16]
  Plant response rating, Nutsedge: 20
[13]; [17]
  Plant response rating, Nutsedge: 20
[14]; Rate 62 g/ha, scale 0 to 100
  Plant response rating, Chickweed: 20
[14]; [15]
  Plant response rating, Chickweed: 20
[14]; [16]
  Plant response rating, Chickweed: 30
[14]; [17]
  Plant response rating, Chickweed: 60
